Assay results: publication PMC7176092, “Development of the first in vivo GPR17 ligand through an iterative drug discovery pipeline: A novel disease-modifying strategy for multiple sclerosis” (PLoS ONE, 2020)
Where two headings read alike, the source gives them in different places.

How the values were obtained:
[1] = Single dose time course study in plasma and brain, 10 mg/kg subcutaneous; format: in vivo, mouse; settings: 10 mg/kg s.c. single dose, C57BL/6 male mice
Description: Afterwards, the presence of the top compound in the brain was assessed in a single dose time course study consisting of a subcutaneous administration of a 10 mg/kg dose (15% Ethanol, 85% PEG400) to 24 naïve C57BL/6 male mice. Eight time-points (n = 3/time-point) were drawn over 24 hours after dosing. Each animal was sampled for blood collection at two time-points (the first via a tail vein, the second via cardiac puncture under anaesthesia). Blood samples were collected and centrifuged to prepare plasma according to standard procedures and stored at approximately -20°C, pending analysis (n = 48 samples). The brain of each animal was collected at sacrifice and analysed alongside plasma samples for compound quantification (n = 24 samples). Plasma and brain homogenate samples were analysed for test compound quantification using an optimised method based on protein precipitation followed by HPLC-MS/MS analysis. The results for test substance in plasma and brain homogenates were subjected to non-compartmental PK analysis using WinNonlin Phoenix v.6.3 for generation of appropriate pharmacokinetic parameters to be reported along with graphical representation of the mean plasma concentration profiles over time.

[2] = target: T1, ADR2B (Homo sapiens, UniProt P18089); assay: Binding assay ADR2B; settings: 100 nM
T1 construct: Eurofins Cerep (external service)
T1 sequence (P18089 1-450): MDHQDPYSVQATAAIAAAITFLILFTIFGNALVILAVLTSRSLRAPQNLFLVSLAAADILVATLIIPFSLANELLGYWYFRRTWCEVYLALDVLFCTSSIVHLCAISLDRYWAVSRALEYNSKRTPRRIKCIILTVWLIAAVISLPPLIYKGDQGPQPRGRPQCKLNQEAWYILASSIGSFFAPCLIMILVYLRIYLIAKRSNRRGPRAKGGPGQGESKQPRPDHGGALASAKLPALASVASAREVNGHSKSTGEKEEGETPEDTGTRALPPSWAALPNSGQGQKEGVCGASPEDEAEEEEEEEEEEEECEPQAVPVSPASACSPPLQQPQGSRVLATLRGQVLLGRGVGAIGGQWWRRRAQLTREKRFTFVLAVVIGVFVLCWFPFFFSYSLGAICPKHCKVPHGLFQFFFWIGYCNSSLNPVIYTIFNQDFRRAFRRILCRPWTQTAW

[3] = target: T2, ADR2 (Homo sapiens, UniProt P07550); assay: Binding assay ADR2 (reference ICI 118551); settings: 100 nM
T2 construct: Eurofins Cerep (external service)

[4] = target: T3, CCR2 (Homo sapiens, UniProt P41597); assay: Binding assay CCR2; settings: 100 nM
T3 construct: Eurofins Cerep (external service)

[5] = target: T4, CysLT1 (Homo sapiens, UniProt Q9Y271); assay: Binding assay CysLT1; settings: 100 nM
T4 construct: Eurofins Cerep (external service)
T4 sequence (Q9Y271 1-337): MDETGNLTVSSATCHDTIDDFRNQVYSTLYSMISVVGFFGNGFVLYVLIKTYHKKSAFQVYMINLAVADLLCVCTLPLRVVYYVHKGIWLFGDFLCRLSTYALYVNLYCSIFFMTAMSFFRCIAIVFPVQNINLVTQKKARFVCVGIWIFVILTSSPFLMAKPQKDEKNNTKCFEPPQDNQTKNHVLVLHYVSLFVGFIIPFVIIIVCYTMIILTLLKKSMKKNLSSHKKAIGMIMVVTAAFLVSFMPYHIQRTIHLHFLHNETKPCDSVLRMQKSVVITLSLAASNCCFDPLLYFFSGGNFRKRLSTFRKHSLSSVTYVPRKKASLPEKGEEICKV

[6] = target: T5, CCR6 (Homo sapiens, UniProt P51684); assay: Cellular functional assay CCR6
T5 sequence (P51684 1-374): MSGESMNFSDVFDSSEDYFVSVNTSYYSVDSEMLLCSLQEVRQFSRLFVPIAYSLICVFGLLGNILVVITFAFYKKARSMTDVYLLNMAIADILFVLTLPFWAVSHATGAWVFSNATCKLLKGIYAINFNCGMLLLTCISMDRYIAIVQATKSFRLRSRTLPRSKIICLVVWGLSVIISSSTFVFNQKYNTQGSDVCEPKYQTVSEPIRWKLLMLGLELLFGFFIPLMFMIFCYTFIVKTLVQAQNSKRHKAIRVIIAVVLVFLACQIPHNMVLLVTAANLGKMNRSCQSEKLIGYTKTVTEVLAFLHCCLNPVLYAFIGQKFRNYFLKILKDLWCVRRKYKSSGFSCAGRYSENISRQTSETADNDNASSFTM

[7] = target: T6, CCR9 (Homo sapiens, UniProt P51686); assay: Cellular functional assay CCR9
T6 sequence (P51686 1-369): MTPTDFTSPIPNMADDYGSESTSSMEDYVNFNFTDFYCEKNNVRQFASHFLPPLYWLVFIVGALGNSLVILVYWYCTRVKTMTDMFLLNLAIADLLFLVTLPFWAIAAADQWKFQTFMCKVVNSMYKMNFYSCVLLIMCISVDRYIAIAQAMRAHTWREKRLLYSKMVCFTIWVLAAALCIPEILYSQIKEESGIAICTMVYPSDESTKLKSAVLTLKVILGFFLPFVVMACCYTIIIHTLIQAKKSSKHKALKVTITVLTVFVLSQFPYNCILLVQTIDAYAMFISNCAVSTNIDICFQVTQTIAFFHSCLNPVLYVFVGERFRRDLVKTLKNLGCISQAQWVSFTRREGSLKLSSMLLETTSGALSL

[8] = mean of 2, read-out: % Of control specific binding, Mean
[9] = read-out: % Inhibition of control specific binding
[10] = single replicates 1 and 2, 0.1 µM
[11] = single replicates 1 and 2, read-out: % Of control specific binding
[12] = antagonist effect, 100 nM, single replicates 1st and 2nd, 0.1 µM
[13] = read-out: % Inhibition of control agonist response
[14] = read-out: Agonist Response (% of Control), Mean, antagonist effect, 100 nM, mean of 2
[15] = read-out: Agonist Response (% of Control), antagonist effect, 100 nM, single replicates 1st and 2nd

T2 sequence (P07550 whole entry): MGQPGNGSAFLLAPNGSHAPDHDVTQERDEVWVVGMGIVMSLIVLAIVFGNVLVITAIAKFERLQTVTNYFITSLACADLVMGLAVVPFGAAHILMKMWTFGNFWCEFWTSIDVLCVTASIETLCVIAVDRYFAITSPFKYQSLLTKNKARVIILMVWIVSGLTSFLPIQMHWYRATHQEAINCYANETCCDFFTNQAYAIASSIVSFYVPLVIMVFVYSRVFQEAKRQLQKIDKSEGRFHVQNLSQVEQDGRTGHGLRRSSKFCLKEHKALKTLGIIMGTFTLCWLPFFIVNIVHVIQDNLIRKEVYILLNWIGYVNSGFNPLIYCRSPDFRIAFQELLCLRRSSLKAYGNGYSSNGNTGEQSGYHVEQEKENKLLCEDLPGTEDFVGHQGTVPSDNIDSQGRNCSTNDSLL
T3 sequence (P41597 whole entry): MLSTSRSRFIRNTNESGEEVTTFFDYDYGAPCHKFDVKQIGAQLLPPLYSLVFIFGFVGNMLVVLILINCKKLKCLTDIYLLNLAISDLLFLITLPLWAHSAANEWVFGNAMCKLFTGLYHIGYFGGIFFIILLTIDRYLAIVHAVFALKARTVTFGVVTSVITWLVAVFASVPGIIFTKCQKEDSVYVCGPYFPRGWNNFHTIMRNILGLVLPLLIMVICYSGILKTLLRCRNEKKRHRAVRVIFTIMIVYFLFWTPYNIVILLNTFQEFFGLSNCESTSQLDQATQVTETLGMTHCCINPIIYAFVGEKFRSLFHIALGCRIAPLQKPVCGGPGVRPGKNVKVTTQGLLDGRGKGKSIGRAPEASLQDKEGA

Tlast ([1]; brain): 6.00 h
AUC(0-t) ([1]; mouse, sc, brain): 205 ng·h/mL
Cmax ([1]; mouse, sc, brain): 270 ng/mL
Tmax ([1]; mouse, sc, brain): 15 min
concentration at 6 h ([1]; mouse, sc, brain, read-out: Clast): 5.8 ng/mL
AUC(0-t) ([1]; mouse, sc, plasma): 3930 ng·h/mL
Cmax ([1]; mouse, sc, plasma): 6520 ng/mL
Tmax ([1]; mouse, sc, plasma): 15 min
concentration at 8 h ([1]; mouse, sc, plasma, read-out: Clast): 17.4 ng/mL
Tlast ([1]; plasma): 8.00 h
remaining activity at 0.1 µM [2, 8]: 99.9%
inhibition at 0.1 µM [2, 9]: 0%
% Of control specific binding [2, 10]: 95.6%
remaining activity at 0.1 µM [2, 11]: 104%
remaining activity at 0.1 µM [3, 8]: 102%
inhibition at 0.1 µM [3, 9]: -2%
% Of control specific binding [3, 10]: 108.1%
remaining activity at 0.1 µM [3, 11]: 95.8%
remaining activity at 0.1 µM [4, 8]: 88.4%
inhibition at 0.1 µM [4, 9]: 12%
% Of control specific binding [4, 10]: 88.9%
remaining activity at 0.1 µM [4, 11]: 88%
remaining activity at 0.1 µM [5, 8]: 97.6%
inhibition at 0.1 µM [5, 9]: 2%
% Of control specific binding [5, 10]: 105.4%
remaining activity at 0.1 µM [5, 11]: 89.7%
Agonist Response (% of Control) [6, 12]: 105.9%
inhibition at 0.1 µM [6, 13]: -0.3%
activity at 0.1 µM [6, 14]: 106%
activity at 0.1 µM [6, 15]: 105%
Agonist Response (% of Control) [7, 12]: 95.2%
inhibition at 0.1 µM [7, 13]: 0.1%
activity at 0.1 µM [7, 14]: 102%
activity at 0.1 µM [7, 15]: 108%
Structure (SMILES): Cc1ccc(-c2nnc(SCC(=O)Nc3nccs3)[nH]2)cc1 [Compound 9]
